Laboratory results from paper PMC12207908, “The broad‐spectrum antimicrobial peptide BMAP‐27B potentiates carbapenems against NDM‐producing pathogens in food animals” (mLife, 2025).
Converted amounts (≈) assume the structure as drawn.

Key:
CREC2 = test: MIC, broth microdilution; format: cell-based; conditions: Escherichia coli, MHB, 1 × 10^6 CFU/ml, 16–18 h, 37°C, independent triplicates
Description: (§1) The MIC of BMAP‐27B and other antibiotics was determined using the broth microdilution method, following the guidelines established by the Clinical and Laboratory Standards Institute (CLSI). Briefly, the bacterial cultures were grown to the logarithmic growth phase and subsequently diluted in Mueller–Hinton broth (MHB) to achieve a final concentration of 1 × 10^6 CFU/ml. BMAP‐27B and the other antibiotics were prepared in twofold serial dilutions in MHB and mixed with an equal volume of bacterial suspension in 96‐well polypropylene microtiter plates.

CREC3 = test: MIC, broth microdilution; format: cell-based; conditions: Escherichia coli, MHB, 1 × 10^6 CFU/ml, 16–18 h, 37°C, independent triplicates
Description: as §1

CRCB1 = test: MIC, broth microdilution; format: cell-based; conditions: Citrobacter, MHB, 1 × 10^6 CFU/ml, 16–18 h, 37°C, independent triplicates
Description: as §1

CRKP5 = test: MIC, broth microdilution; format: cell-based; conditions: Klebsiella pneumoniae, MHB, 1 × 10^6 CFU/ml, 16–18 h, 37°C, independent triplicates
Description: as §1

CREC6 = test: MIC, broth microdilution; format: cell-based; conditions: Escherichia coli, MHB, 1 × 10^6 CFU/ml, 16–18 h, 37°C, independent triplicates
Description: as §1

CRCB2 = test: MIC, broth microdilution; format: cell-based; conditions: Citrobacter, MHB, 1 × 10^6 CFU/ml, 16–18 h, 37°C, independent triplicates
Description: as §1

P. aeruginosa UCBPP-PA14 = test: MIC, broth microdilution; format: cell-based; conditions: Pseudomonas aeruginosa, MHB, 1 × 10^6 CFU/ml, 16–18 h, 37°C, independent triplicates
Description: as §1

CRCB3 = test: MIC, broth microdilution; format: cell-based; conditions: Citrobacter, MHB, 1 × 10^6 CFU/ml, 16–18 h, 37°C, independent triplicates
Description: as §1

P. aeruginosa UCBPP-PA01 = test: MIC, broth microdilution; format: cell-based; conditions: Pseudomonas aeruginosa, UCBPPPA01, MHB, 1 × 10^6 CFU/ml, 16–18 h, 37°C, independent triplicates
Description: as §1

PREC2 = test: MIC, broth microdilution; format: cell-based; conditions: Escherichia coli, MHB, 1 × 10^6 CFU/ml, 16–18 h, 37°C, independent triplicates
Description: as §1

PREC3 = test: MIC, broth microdilution; format: cell-based; conditions: Escherichia coli, MHB, 1 × 10^6 CFU/ml, 16–18 h, 37°C, independent triplicates
Description: as §1

CRAB2 = test: MIC, broth microdilution; format: cell-based; conditions: Acinetobacter baumannii, MHB, 1 × 10^6 CFU/ml, 16–18 h, 37°C, independent triplicates
Description: as §1

CREC4 = test: MIC, broth microdilution; format: cell-based; conditions: Escherichia coli, MHB, 1 × 10^6 CFU/ml, 16–18 h, 37°C, independent triplicates
Description: as §1

CRKP6 = test: MIC, broth microdilution; format: cell-based; conditions: Klebsiella pneumoniae, MHB, 1 × 10^6 CFU/ml, 16–18 h, 37°C, independent triplicates
Description: as §1

PRCB1 = test: MIC, broth microdilution; format: cell-based; conditions: Citrobacter, MHB, 1 × 10^6 CFU/ml, 16–18 h, 37°C, independent triplicates
Description: as §1

[1] = tested on: En. faecium (Clinical; MDR; pig, faeces), upper row; test: MIC, broth microdilution; format: cell-based; conditions: Enterococcus faecium, En. faecium clinical MDR isolate, MHB, 16–18 h, 37°C, independent triplicates
Description: as §1

CRKP1 = test: MIC, broth microdilution; format: cell-based; conditions: Klebsiella pneumoniae, MHB, 1 × 10^6 CFU/ml, 16–18 h, 37°C, independent triplicates
Description: as §1

S. aureus ATCC = test: MIC, broth microdilution; format: cell-based; conditions: Staphylococcus aureus, MHB, 1 × 10^6 CFU/ml, 16–18 h, 37°C, independent triplicates
Description: as §1

CREC7 = test: MIC, broth microdilution; format: cell-based; conditions: Escherichia coli, MHB, 1 × 10^6 CFU/ml, 16–18 h, 37°C, independent triplicates
Description: as §1

CRKP2 [2] = test: MIC, broth microdilution; format: cell-based; conditions: Klebsiella pneumoniae, MHB, 1 × 10^6 CFU/ml, 16–18 h, 37°C, independent triplicates
Description: as §1

CREC1 = test: MIC, broth microdilution; format: cell-based; conditions: Escherichia coli, MHB, 1 × 10^6 CFU/ml, 16–18 h, 37°C, independent triplicates
Description: as §1

CRAB1 = test: MIC, broth microdilution; format: cell-based; conditions: Acinetobacter baumannii, MHB, 1 × 10^6 CFU/ml, 16–18 h, 37°C, independent triplicates
Description: as §1

CREC5 = test: MIC, broth microdilution; format: cell-based; conditions: Escherichia coli, MHB, 1 × 10^6 CFU/ml, 16–18 h, 37°C, independent triplicates
Description: as §1

[3] = tested on: En. faecium (Clinical; MDR; pig, faeces), lower row; test: MIC, broth microdilution; format: cell-based; conditions: Enterococcus faecium, En. faecium clinical MDR isolate, MHB, 16–18 h, 37°C, independent triplicates
Description: as §1

PREC1 = test: MIC, broth microdilution; format: cell-based; conditions: Escherichia coli, MHB, 1 × 10^6 CFU/ml, 16–18 h, 37°C, independent triplicates
Description: as §1

Salmonella SL1344 = test: MIC, broth microdilution; format: cell-based; conditions: MHB, 1 × 10^6 CFU/ml, 16–18 h, 37°C, independent triplicates
Description: as §1

CRKP3 = test: MIC, broth microdilution; format: cell-based; conditions: Klebsiella pneumoniae, MHB, 1 × 10^6 CFU/ml, 16–18 h, 37°C, independent triplicates
Description: as §1

CRKP4 = test: MIC, broth microdilution; format: cell-based; conditions: Klebsiella pneumoniae, MHB, 1 × 10^6 CFU/ml, 16–18 h, 37°C, independent triplicates
Description: as §1

CRKP2 [4] = test: Mouse peritonitis model induced by CRKP2; format: in vivo, BALB/c mice; conditions: 1.0 × 10^8 CFU CRKP2 i.p.; treatment at 1 and 6 h; BMAP‐27B 3, 6 or 9 mg/kg, MEM 10 mg/kg, combination 3 + 10 mg/kg; tissues 24 h after infection
Description: Male BALB/c mice were used in this study, with six mice per group. The mice were infected via an intraperitoneal injection with a suspension of 1.0 × 10^8 CFU of CRKP2. At 1 and 6 h postinfection, the mice were treated with PBS, BMAP‐27B at doses of 3, 6, or 9 mg/kg, MEM at 10 mg/kg alone, or a combination of BMAP‐27B (3 mg/kg) and MEM (10 mg/kg). After 24 h of bacterial challenge, the surviving mice were euthanized by cervical dislocation. The kidneys, livers, spleens, and lungs of each mouse were harvested within […] postinfection. A portion of these organs was taken for histologic analysis using H&E staining, while the remaining tissue samples were weighed, homogenized in sterile normal saline, and serially diluted in saline. A volume of 100 µl of the homogenate dilutions was uniformly plated onto agar plates containing MEM (8 μg/ml). After overnight incubation at 37°C, colonies were counted and the results were expressed as CFU/g.

CC1(C)S[C@@H]2[C@H](NC(=O)[C@H](N)c3ccccc3)C(=O)N2[C@H]1C(=O)O [AMP, ampicillin]
MIC (CREC2): > 32 µg/mL
MIC (CREC3): > 32 µg/mL
MIC (CRCB1): > 32 µg/mL
MIC (CRKP5): > 32 µg/mL
MIC (CREC6): > 32 µg/mL
MIC (CRCB2): > 32 µg/mL
MIC (P. aeruginosa UCBPP-PA14): > 32 µg/mL
MIC (CRCB3): > 32 µg/mL
MIC (P. aeruginosa UCBPP-PA01): > 32 µg/mL
MIC (PREC2): > 32 µg/mL
MIC (PREC3): > 32 µg/mL
MIC (CRAB2): > 32 µg/mL
MIC (CREC4): > 32 µg/mL
MIC (CRKP6): > 32 µg/mL
MIC (PRCB1): > 32 µg/mL
MIC [1]: 32 µg/mL (≈ 91.6 µM)
MIC (CRKP1): > 32 µg/mL
MIC (S. aureus ATCC): 4 µg/mL (≈ 11.4 µM)
MIC (CREC7): > 32 µg/mL
MIC (CRKP2 [2]): > 32 µg/mL
MIC (CREC1): > 32 µg/mL
MIC (CRAB1): > 32 µg/mL
MIC (CREC5): > 32 µg/mL
MIC [3]: > 32 µg/mL
MIC (PREC1): > 32 µg/mL
MIC (Salmonella SL1344): 8 µg/mL (≈ 22.9 µM)
MIC (CRKP3): > 32 µg/mL
MIC (CRKP4): > 32 µg/mL

CC(C)(O/N=C(\C(=O)N[C@@H]1C(=O)N2C(C(=O)[O-])=C(C[n+]3ccccc3)CS[C@H]12)c1csc(N)n1)C(=O)O [CAZ, ceftazidime]
MIC (CREC2): > 32 µg/mL
MIC (CREC3): > 32 µg/mL
MIC (CRCB1): > 32 µg/mL
MIC (CRKP5): > 32 µg/mL
MIC (CREC6): > 32 µg/mL
MIC (CRCB2): > 32 µg/mL
MIC (P. aeruginosa UCBPP-PA14): 2 µg/mL (≈ 3.66 µM)
MIC (CRCB3): > 32 µg/mL
MIC (P. aeruginosa UCBPP-PA01): 2 µg/mL (≈ 3.66 µM)
MIC (PREC2): > 32 µg/mL
MIC (PREC3): 16 µg/mL (≈ 29.3 µM)
MIC (CRAB2): > 32 µg/mL
MIC (CREC4): > 32 µg/mL
MIC (CRKP6): > 32 µg/mL
MIC (PRCB1): > 32 µg/mL
MIC [1]: > 32 µg/mL
MIC (CRKP1): > 32 µg/mL
MIC (S. aureus ATCC): 4 µg/mL (≈ 7.32 µM)
MIC (CREC7): > 32 µg/mL
MIC (CRKP2 [2]): > 32 µg/mL
MIC (CREC1): > 32 µg/mL
MIC (CRAB1): > 32 µg/mL
MIC (CREC5): > 32 µg/mL
MIC [3]: > 32 µg/mL
MIC (PREC1): > 32 µg/mL
MIC (Salmonella SL1344): < 1 µg/mL
MIC (CRKP3): > 32 µg/mL
MIC (CRKP4): > 32 µg/mL

C[C@@H](O)[C@H]1C(=O)N2C(C(=O)O)=C(SCCN=CN)C[C@H]12 [IMP, imipenem]
MIC (CREC2): > 32 µg/mL
MIC (CREC3): 32 µg/mL (≈ 107 µM)
MIC (CRCB1): > 32 µg/mL
MIC (CRKP5): 4 µg/mL (≈ 13.4 µM)
MIC (CREC6): 32 µg/mL (≈ 107 µM)
MIC (CRCB2): 32 µg/mL (≈ 107 µM)
MIC (P. aeruginosa UCBPP-PA14): 4 µg/mL (≈ 13.4 µM)
MIC (CRCB3): 8 µg/mL (≈ 26.7 µM)
MIC (P. aeruginosa UCBPP-PA01): < 1 µg/mL
MIC (PREC2): < 1 µg/mL
MIC (PREC3): < 1 µg/mL
MIC (CRAB2): > 32 µg/mL
MIC (CREC4): > 32 µg/mL
MIC (CRKP6): 4 µg/mL (≈ 13.4 µM)
MIC (PRCB1): < 1 µg/mL
MIC [1]: > 32 µg/mL
MIC (CRKP1): 32 µg/mL (≈ 107 µM)
MIC (S. aureus ATCC): < 1 µg/mL
MIC (CREC7): 32 µg/mL (≈ 107 µM)
MIC (CRKP2 [2]): 32 µg/mL (≈ 107 µM)
MIC (CREC1): > 32 µg/mL
MIC (CRAB1): > 32 µg/mL
MIC (CREC5): 32 µg/mL (≈ 107 µM)
MIC [3]: > 32 µg/mL
MIC (PREC1): < 1 µg/mL
MIC (Salmonella SL1344): < 1 µg/mL
MIC (CRKP3): > 32 µg/mL
MIC (CRKP4): 16 µg/mL (≈ 53.4 µM)

C[C@@H](O)[C@H]1C(=O)N2C(C(=O)O)=C(S[C@@H]3CN[C@H](C(=O)N(C)C)C3)[C@H](C)[C@H]12 [MEM, meropenem]
MIC (CREC2): 16 µg/mL (≈ 41.7 µM)
MIC (CREC3): 32 µg/mL (≈ 83.4 µM)
MIC (CRCB1): 32 µg/mL (≈ 83.4 µM)
MIC (CRKP5): 32 µg/mL (≈ 83.4 µM)
MIC (CREC6): 32 µg/mL (≈ 83.4 µM)
MIC (CRCB2): 32 µg/mL (≈ 83.4 µM)
MIC (P. aeruginosa UCBPP-PA14): 2 µg/mL (≈ 5.22 µM)
MIC (CRCB3): 32 µg/mL (≈ 83.4 µM)
MIC (P. aeruginosa UCBPP-PA01): < 1 µg/mL
MIC (PREC2): < 1 µg/mL
MIC (PREC3): < 1 µg/mL
MIC (CRAB2): > 32 µg/mL
MIC (CREC4): > 32 µg/mL
MIC (CRKP6): > 32 µg/mL
MIC (PRCB1): < 1 µg/mL
MIC [1]: 8 µg/mL (≈ 20.9 µM)
MIC (CRKP1): > 32 µg/mL
MIC (S. aureus ATCC): < 1 µg/mL
MIC (CREC7): 32 µg/mL (≈ 83.4 µM)
MIC (CRKP2 [2]): > 32 µg/mL
MIC (CREC1): > 32 µg/mL
MIC (CRAB1): > 32 µg/mL
MIC (CREC5): 32 µg/mL (≈ 83.4 µM)
MIC [3]: 16 µg/mL (≈ 41.7 µM)
MIC (PREC1): < 1 µg/mL
MIC (Salmonella SL1344): < 1 µg/mL
MIC (CRKP3): > 32 µg/mL
MIC (CRKP4): 32 µg/mL (≈ 83.4 µM)
bacterial titers in the liver, spleen, lung, and kidneys compared to the infection group (CRKP2 [4]): only slightly lower
